Measurements from US11851697B2, “Ex vivo protease activity detection for disease detection/diagnostic, staging, monitoring and treatment” (Glympse Bio, Inc., priority 2020, dated 2023).
Square brackets hold non-standard residues; d marks the D form. Primed or numbered codes have the meaning given here. Ends that are not written are not given here. CPQ2(3) = quencher on Lys side chain; FAM = fluorescent reporter; PEG2″ = PEG2 spacer; CPQ2 = quencher

What was measured:
COVID-related proteases = assay: Ex vivo probe cleavage in COVID vs healthy K2EDTA and Lithium Heparin plasma; assay type: biochemical
[1] = system: proteases in NASH and healthy plasma cleaving Probe #102; assay: Inhibitor profiling of Probe #102 cleavage in NASH and healthy plasma; assay type: biochemical, mice
Procedure: For this experiment, all plasma samples were prepared individually and diluted 1/10e in PBS with inhibitor added directly to the samples. Inhibitor was prepared at 15× concentration to final. Substrates were diluted in DI water at 18 uM, such that the final concentration on the plate would be 6 uM. All samples were prepared such that their last dilution on the plate would not affect the desired final concentration. 10 ul of each individual sample was pipetted into their corresponding wells, and the plate was then spun down in the centrifuge at 1500 RPM for 30 seconds to coat the bottom of each well with the sample. 5 ul of the 18 uM substrate solution was pipetted into each well being used on a 384 well plate, and then the plate was spun down in the centrifuge at 1500 rpm for 30 seconds. The plate was placed immediately in the plate reader at 37° C. for a 30-minute-long fluorescence kinetic read at 485/535 extended gain.
To assess the proteolytic cleavage pattern of Probe #102, samples were tested using a pool of broad inhibitors for serine, cysteine, threonine, MMP and aspartic protease family members (broad inhibitor) to assess general protease activity, AEBSF for serine proteases, E64 for cysteine proteases, CTSi for broad cathepsin inhibition of cathepsins L, S, K and B, or specific inhibitors for cathepsin K (L00625), for cathepsin L (SID) or cathepsin B (CA074).

[2] = system: cathepsin and/or MMP protease activities; assay: Ex vivo probe cleavage in plasma of healthy, NASH regression and NASH progression mice; assay type: biochemical; conditions: K2EDTA plasma collected at 20 weeks
From the text: Plasma samples were collected from all animals at 20 weeks.
The probes showing the most differentiation in NASH were linked to cathepsin and/or MMP protease activities.

[3] = cited from earlier work
[4] = system: caspase activity in hepatitis; assay: Ex vivo probe cleavage in plasma of Jo2 fulminant hepatitis mice; assay type: biochemical; conditions: mouse plasma 3 hours after Jo2 injection vs healthy
Procedure: Fulminant hepatitis is induced after injection intraperitoneal of monoclonal antibody anti-CD95 (Jo2, BD biosciences, 4 ug/animal), and mouse plasma samples were collected 3 hours after Jo2 injection.

[5] = both K2EDTA and Lithium Heparin plasma sets

## Probe #84: a Furin substrate (GRVKRGLAGK(CPQ2); not fully specified (N-terminus, C-terminus); also: 5-FAM (place not given here), PEG2-kk-GC (place not given here))
COVID-related proteases; [5]
  differential cleavage between COVID and healthy samples: demonstrated contrast in both sets

## Probe #462: a MMP8 substrate (GKKAKRNALGK(CPQ2); not fully specified (N-terminus, C-terminus); also: FAM (place not given here), PEG2, DLys-DLys-GC (place not given here))
COVID-related proteases; [5]
  differential cleavage between COVID and healthy samples: demonstrated contrast in both sets

## CC(C)C[C@H](NC(=O)[C@H]1O[C@@H]1C(=O)O)C(=O)NCCCCN=C(N)N [Probe E64, E64]
[1]; NASH plasma, Probe #102, less decrease in signal for healthy
  effect on NASH signal: decreased NASH signal significantly

## Probe #96: probe of Table 1 ({FAM}-GRPLALWESQGK(CPQ2)[PEG2″][dK]GC; not fully specified; printed as (FAM)-GRPLALWESQG-K(CPQ2)-PEG2-k-GC; also: FAM, position not given here)
[2]
  differentiation among healthy, regression and NASH samples: can differentiate

## Probe #102: a CTSL sensing probe; sequence in Table 1 ({FAM}-GKPILFFRLKGK(CPQ2(3))[PEG2″][dK][dK]GC; not fully specified; printed as (FAM)-GKPILFFRLKG-K(CPQ2)-PEG2-kk-GC)
[2]
  differentiation among healthy, regression and NASH samples: can differentiate
[1]; individual cathepsin inhibitors, FIG. 30D-F
  protease to which the probe responds: specifically responds to the activity of cathepsin L (CTSL)

## O=c1[nH]c(-c2ccccc2O)nc2ccccc12 [HPQ, 2-(2″-hydroxyphenyl)-4(3H)-quinazolinone]
[3]
  solubility in water: strictly insoluble in water

## NCCc1ccc(S(=O)(=O)F)cc1 [AEBSF]
[1]; NASH plasma, Probe #102
  decrease of NASH signal: 65%
[1]; healthy plasma, Probe #102
  decrease of healthy signal: 60%

## Probe #492: probe of Table 1 ({FAM}-GQRANSIRVTWGK(CPQ2(3))[PEG2″][dK][dK]GC; not fully specified; printed as (FAM)-GQRANSIRVTWG-K(CPQ2)-(PEG2)-DLys-DLys-GC)
[2]
  differentiation among healthy, regression and NASH samples: can differentiate

## CCCNC(=O)[C@H]1O[C@@H]1C(=O)N[C@H](C(=O)N1CCC[C@H]1C(=O)O)[C@@H](C)CC [CA074]
[1]; Probe #102
  effect on signal for NASH or healthy samples: did not significantly decrease signal

## Probe #520: probe of Table 1 (GKPISLISSGK; not fully specified; 5FAM, CPQ2 quencher, PEG2; MOD_RES (11)..(11) Lys modified with a CPQ2 quencher)
[2]
  differentiation among healthy, regression and NASH samples: can differentiate

## Probe #409: the SARS CoV2 coronavirus substrate (SARS-COV2 3C protease) (GTSAVLQSGFRKGK(CPQ2); not fully specified (N-terminus, C-terminus); also: 5-FAM (place not given here), PEG2-kk-GC (place not given here))
COVID-related proteases; K2 EDTA samples
  differential cleavage between COVID and healthy samples: modest contrast

## O=c1nc(-c2cc(C(=C(c3ccccc3)c3ccccc3)c3ccccc3)ccc2O)[nH]c2ccc(Cl)cc12 [HTPQ]
[3]
  solubility in water: strictly insoluble in water

## Probe #18: a Neutrophil elastase substrate (GAAPVGK(CPQ2); not fully specified (N-terminus, C-terminus); also: 5-FAM (place not given here), PEG2-kk-GC (place not given here))
COVID-related proteases; [5]
  differential cleavage between COVID and healthy samples: demonstrated contrast in both sets

## Probe #8: Caspase centric probe (GVDVADGK; not fully specified; 5-FAM, CPQ2 quencher, PEG2; MOD_RES (8)..(8) Lys modified with a CPQ2 quencher)
[4]
  contrast in Jo2 hepatitis model: show contrast that is specific and sensitive to the Jo2 model

## Probe #428: probe of Table 1 ({FAM}-GDRRKKLTQGK(CPQ2(3))[PEG2″][dK][dK]GC; not fully specified; printed as (FAM)-GDRRKKLTQG-K(CPQ2)-(PEG2)-DLys-DLys-GC)
[2]
  differentiation among healthy, regression and NASH samples: can differentiate

## CN1CCN(c2nc(-c3ccc(C(=O)NC4(C(=O)NCC#N)CCCCC4)cc3)cs2)CC1 [Probe L006235]
[1]; Probe #102
  effect on signal for NASH or healthy samples: did not significantly decrease signal

## Probe #12: Caspase centric probe (GDEVDGK; not fully specified; 5-FAM, CPQ2 quencher, PEG2; MOD_RES (7)..(7) Lys modified with a CPQ2 quencher)
[4]
  contrast in Jo2 hepatitis model: show contrast that is specific and sensitive to the Jo2 model
